The text below walks through data of ChEMBL document CHEMBL1137040, “Estrone formate: a novel type of irreversible inhibitor of human steroid sulfatase” (Bioorg Med Chem Lett, 2004).

Some results are limits rather than exact numbers.

The target of the experiment is T1, Steryl-sulfatase (Homo sapiens, UniProt P08842).
T1 sequence (P08842 whole entry): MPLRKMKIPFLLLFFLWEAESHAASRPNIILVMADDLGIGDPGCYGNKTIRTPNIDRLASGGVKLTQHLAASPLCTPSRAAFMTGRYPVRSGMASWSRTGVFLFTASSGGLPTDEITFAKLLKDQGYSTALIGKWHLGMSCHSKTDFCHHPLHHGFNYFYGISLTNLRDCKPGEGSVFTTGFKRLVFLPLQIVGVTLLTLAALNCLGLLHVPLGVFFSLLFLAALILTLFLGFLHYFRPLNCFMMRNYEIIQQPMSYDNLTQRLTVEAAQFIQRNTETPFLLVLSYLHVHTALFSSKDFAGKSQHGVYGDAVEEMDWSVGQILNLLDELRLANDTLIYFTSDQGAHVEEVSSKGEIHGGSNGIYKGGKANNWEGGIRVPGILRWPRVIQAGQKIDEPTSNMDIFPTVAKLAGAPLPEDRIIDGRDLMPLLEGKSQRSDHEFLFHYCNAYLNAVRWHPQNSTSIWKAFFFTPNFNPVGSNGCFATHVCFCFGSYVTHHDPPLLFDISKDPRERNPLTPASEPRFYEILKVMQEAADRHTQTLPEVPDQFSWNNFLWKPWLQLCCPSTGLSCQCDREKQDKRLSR
The experiment in a line: Inhibition of purified human steroid sulfatase.
As to `O=COc1ccc2nc(C=C3C4CC5CC(C4)CC3C5)oc2c1`, the IC50 amounted to 1.5 µM.
As for `Oc1ccc2nc(C=C3C4CC5CC(C4)CC3C5)oc2c1`, the figure is 0.26 µM; as for `C[C@]12CC[C@H](OC=O)C=C1CCC1C2CC[C@]2(C)C(=O)CCC12` (stereo partly drawn), greater than 10 µM.
In turn, `C[C@]12CC[C@@H]3c4ccc(OC(=O)NCc5ccccc5)cc4CCC3[C@@H]1CCC2=O` (single isomer, unassigned) came in with an IC50 greater than 50 µM.
With `CC(C)(C)OC(=O)NCC(=O)Oc1ccc2c(c1)CCC1[C@@H]2CC[C@]2(C)C(=O)CC[C@@H]12` (single isomer, unassigned) the figure was greater than 50 µM; with `C[C@]12CC[C@@H]3c4ccc(OC=O)cc4CCC3[C@@H]1CCC2=O` (single isomer, unassigned), 0.42 µM; with `C[C@]12CC[C@@H]3c4ccc(OC(=O)CN)cc4CCC3[C@@H]1CCC2=O` (single isomer, unassigned), greater than 50 µM.
With `C[C@]12CC[C@@H]3c4ccc(OC#N)cc4CCC3[C@@H]1CCC2=O` (single isomer, unassigned) the figure was greater than 50 µM.
With `CC(=O)Oc1ccc2c(c1)CCC1[C@@H]2CC[C@]2(C)C(=O)CC[C@@H]12` (single isomer, unassigned) the figure was greater than 50 µM.
Turning to `C[C@]12CC[C@@H]3c4ccc(OC(=N)S)cc4CCC3[C@@H]1CCC2=O` (single isomer, unassigned), the IC50 is greater than 50 µM.
As for `C[C@]12CC[C@@H]3c4ccc(OC(N)=O)cc4CCC3[C@@H]1CCC2=O` (single isomer, unassigned), the figure is greater than 50 µM; as for `C[C@]12CC[C@@H]3c4ccc(OS(N)(=O)=O)cc4CCC3[C@@H]1CCC2=O` (single isomer, unassigned) [EMATE], 0.05 µM; as for `O=COc1ccccc1` [FORMIC ACID PHENYL ESTER], greater than 30 µM.
